The results in this text go back to ChEMBL document CHEMBL1201862, “PubChem BioAssay data set” (2004).

Test [1] concerns the target Dual specificity tyrosine-phosphorylation-regulated kinase 1A (Rattus norvegicus, UniProt Q63470). Type of test: biochemical, Homo sapiens.
For test [2], the target named is T1, Histone-lysine N-methyltransferase NSD2 (Homo sapiens, UniProt O96028).
T1 sequence (O96028 whole entry): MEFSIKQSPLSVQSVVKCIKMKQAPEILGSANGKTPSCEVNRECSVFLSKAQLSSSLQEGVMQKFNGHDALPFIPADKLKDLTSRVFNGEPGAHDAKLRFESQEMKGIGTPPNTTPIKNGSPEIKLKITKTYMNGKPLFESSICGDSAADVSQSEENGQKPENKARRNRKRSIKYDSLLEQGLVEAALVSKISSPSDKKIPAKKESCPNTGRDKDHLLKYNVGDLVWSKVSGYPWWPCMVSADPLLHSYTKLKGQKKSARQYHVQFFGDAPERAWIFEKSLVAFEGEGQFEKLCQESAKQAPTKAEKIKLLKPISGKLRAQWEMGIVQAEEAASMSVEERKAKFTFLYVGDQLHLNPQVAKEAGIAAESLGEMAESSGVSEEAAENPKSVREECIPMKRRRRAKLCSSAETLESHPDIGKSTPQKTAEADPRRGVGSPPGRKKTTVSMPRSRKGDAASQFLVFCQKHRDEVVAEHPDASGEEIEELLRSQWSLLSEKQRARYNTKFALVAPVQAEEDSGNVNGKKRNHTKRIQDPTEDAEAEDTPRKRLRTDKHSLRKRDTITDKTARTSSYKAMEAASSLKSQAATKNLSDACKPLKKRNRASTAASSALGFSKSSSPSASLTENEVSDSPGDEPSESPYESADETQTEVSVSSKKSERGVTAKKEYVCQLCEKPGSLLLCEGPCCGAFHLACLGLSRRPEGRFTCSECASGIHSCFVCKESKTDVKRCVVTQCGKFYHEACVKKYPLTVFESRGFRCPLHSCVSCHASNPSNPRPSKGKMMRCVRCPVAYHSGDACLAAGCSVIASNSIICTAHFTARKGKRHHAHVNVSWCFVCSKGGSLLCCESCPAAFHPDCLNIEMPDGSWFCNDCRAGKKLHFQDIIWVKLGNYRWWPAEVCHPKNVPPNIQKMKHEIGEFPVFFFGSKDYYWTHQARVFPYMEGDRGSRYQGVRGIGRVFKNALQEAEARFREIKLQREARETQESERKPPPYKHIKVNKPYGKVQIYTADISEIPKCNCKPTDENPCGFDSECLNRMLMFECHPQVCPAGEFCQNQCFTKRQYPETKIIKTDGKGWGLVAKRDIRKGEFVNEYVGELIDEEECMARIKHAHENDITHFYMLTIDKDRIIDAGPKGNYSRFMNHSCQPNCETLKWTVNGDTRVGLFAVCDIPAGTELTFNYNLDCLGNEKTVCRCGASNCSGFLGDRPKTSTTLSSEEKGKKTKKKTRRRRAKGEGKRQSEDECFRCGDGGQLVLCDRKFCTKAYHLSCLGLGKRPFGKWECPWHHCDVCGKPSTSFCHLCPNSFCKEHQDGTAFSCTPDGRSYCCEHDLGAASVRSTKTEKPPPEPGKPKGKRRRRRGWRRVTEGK
Format: biochemical.

The test system of test [3] is HEK293. Nature of the test: cells. The note with it: Homo sapiens.
For test [4], the system named is HEK293. Nature of the test: cells. The conditions noted are these: Homo sapiens. This is another data set of the same source.
The target in test [5] is T2, Tyrosine-protein phosphatase non-receptor type 7 (Homo sapiens, UniProt P35236).
T2 sequence (P35236 whole entry): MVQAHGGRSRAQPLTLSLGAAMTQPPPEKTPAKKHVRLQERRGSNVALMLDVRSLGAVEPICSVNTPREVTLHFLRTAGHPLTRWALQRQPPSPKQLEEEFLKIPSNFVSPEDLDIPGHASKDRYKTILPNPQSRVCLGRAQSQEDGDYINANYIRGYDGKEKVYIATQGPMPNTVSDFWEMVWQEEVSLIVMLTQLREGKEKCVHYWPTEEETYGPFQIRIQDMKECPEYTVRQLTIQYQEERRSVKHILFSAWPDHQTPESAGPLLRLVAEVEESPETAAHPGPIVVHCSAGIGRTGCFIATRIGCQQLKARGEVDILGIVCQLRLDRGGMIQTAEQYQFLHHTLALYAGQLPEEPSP
Type of test: functional.

Test [6] has as its target T3, Tyrosine-protein phosphatase non-receptor type 22 (Homo sapiens, UniProt Q9Y2R2).
T3 sequence (Q9Y2R2 whole entry): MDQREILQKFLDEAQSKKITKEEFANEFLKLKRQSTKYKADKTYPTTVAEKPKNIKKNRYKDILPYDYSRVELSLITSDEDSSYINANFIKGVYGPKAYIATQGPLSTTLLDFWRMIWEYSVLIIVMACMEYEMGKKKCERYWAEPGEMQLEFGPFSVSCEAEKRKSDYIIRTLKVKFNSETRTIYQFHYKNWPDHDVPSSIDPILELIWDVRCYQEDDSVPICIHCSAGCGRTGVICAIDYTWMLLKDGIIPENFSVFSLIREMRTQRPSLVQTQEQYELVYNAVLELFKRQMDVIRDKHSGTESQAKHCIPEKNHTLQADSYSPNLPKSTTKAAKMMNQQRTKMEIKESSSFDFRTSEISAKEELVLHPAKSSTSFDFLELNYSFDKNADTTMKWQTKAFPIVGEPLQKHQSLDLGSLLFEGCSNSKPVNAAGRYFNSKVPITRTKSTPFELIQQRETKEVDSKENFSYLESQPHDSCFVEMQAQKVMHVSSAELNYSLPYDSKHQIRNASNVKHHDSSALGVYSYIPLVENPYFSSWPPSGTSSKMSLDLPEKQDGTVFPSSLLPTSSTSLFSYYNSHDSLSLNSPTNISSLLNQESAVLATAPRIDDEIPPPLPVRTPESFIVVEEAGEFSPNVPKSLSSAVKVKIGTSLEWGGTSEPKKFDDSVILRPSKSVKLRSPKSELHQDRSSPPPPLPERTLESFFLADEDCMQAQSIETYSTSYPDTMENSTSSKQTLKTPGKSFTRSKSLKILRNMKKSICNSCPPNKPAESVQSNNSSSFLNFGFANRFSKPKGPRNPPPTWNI
Type of test: functional.

The target of test [7] is T3, Tyrosine-protein phosphatase non-receptor type 22. Format: functional. The source holds these as a separate data set.
A short description of test [8]: luciferase reporter signal suppression in cells – H4 neuroglioma cells, luminescence, dose response (AID 1990). Format: functional, cell-based.
Test [9] is described as follows: Luminescence Cell-Based Dose Response HTS to Identify Inhibitors of 5'UTR Stem-Loop Driven Prion Protein mRNA Translation in H4 Neuroglioblastoma Cells. [Related pubchem assays: 1827 (Project Summary), 1813 (Primary HTS)]. Format: functional.
Test [10] in a line: alpha-synuclein stem-loop luciferase translation blockers – H4 neuroglioma cells, luminescence, confirmation (AID 1988). Format: functional, cell-based.
Test [11] has as its target Glycogen synthase kinase-3 alpha (Homo sapiens, UniProt P49840). Description: Inhibition of Human GSK-3 alpha Activity Measured in Biochemical System Using Microfluidics - 2063-06_Inhibitor_Dose_DryPowder_Activity. [Related pubchem assays (depositor defined):AID2709].
Test [12] has as its target Glycogen synthase kinase-3 beta (Homo sapiens, UniProt P49841). Nature of the test: Inhibition of Human GSK-3 beta Activity Measured in Biochemical System Using Microfluidics - 2063-05_Inhibitor_Dose_DryPowder_Activity. [Related pubchem assays (depositor defined):AID2709].
The target of the next test is Beta-galactosidase (Escherichia coli, UniProt Q8VNN2). Nature of the test: PubChem AID 485352. Type of test: functional.
Beta-galactosidase, sequence (Q8VNN2 whole entry): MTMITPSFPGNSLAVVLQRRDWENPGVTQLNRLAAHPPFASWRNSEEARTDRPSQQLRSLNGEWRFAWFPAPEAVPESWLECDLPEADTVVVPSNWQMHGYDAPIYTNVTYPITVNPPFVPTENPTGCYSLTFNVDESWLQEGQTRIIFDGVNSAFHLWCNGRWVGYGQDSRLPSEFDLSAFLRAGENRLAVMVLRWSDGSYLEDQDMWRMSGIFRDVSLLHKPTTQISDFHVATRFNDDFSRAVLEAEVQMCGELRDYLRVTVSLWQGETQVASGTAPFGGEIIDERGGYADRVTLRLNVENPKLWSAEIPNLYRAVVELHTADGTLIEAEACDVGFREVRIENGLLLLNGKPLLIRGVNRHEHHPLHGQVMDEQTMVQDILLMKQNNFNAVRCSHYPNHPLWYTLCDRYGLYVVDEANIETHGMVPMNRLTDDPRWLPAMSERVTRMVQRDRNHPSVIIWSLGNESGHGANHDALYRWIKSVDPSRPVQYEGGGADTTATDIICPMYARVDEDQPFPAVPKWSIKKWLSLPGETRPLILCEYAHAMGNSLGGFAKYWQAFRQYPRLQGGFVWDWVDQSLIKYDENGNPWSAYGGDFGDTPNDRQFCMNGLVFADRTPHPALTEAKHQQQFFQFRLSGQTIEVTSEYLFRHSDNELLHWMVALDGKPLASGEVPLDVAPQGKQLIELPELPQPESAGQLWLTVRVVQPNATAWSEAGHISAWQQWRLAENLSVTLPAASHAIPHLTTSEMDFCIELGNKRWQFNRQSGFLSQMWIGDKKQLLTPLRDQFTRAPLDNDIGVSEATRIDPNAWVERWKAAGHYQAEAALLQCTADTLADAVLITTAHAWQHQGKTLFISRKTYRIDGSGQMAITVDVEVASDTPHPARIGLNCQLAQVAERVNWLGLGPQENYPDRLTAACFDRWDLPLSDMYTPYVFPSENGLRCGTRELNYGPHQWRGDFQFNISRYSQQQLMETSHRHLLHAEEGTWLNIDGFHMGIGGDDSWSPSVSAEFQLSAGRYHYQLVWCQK
Test [13] concerns the target Type-1 angiotensin II receptor (Homo sapiens, UniProt P30556). Nature of the test: antagonism of angiotensin II type 1 receptor – cell-based, uHTS hits, selectivity assay for APJ receptor antagonist project, dose response (AID 463214).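 Further: antagonist potency against angiotensin II stimulated AT1 response.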 Format: functional.
Test [14] addresses Intestinal-type alkaline phosphatase (Mus musculus, UniProt P24822). Nature of the test: PubChem AID 488875. Format: functional.
The target in test [15] is T4, Intestinal-type alkaline phosphatase (Homo sapiens, UniProt P09923). Nature of the test: human intestinal alkaline phosphatase activators, dose response, biochemical, luminescence, uHTS hits (AID 463120). Type of test: functional.
T4 sequence (P09923 whole entry): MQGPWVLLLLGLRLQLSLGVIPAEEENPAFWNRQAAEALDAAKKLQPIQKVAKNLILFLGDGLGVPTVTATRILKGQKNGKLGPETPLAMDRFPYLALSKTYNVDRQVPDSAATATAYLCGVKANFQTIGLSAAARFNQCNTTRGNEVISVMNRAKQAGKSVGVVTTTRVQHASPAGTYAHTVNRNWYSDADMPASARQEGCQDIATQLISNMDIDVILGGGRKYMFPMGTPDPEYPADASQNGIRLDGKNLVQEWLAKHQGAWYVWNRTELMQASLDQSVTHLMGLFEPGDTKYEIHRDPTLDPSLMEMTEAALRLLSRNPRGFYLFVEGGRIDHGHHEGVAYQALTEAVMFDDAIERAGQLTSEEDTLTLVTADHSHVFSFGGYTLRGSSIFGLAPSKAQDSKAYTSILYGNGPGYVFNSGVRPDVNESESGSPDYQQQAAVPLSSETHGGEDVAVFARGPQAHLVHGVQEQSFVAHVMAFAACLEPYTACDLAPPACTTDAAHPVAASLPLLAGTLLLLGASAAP
The target of test [16] is T4, Intestinal-type alkaline phosphatase. Description: activation of human intestinal alkaline phosphatase – biochemical, luminescent, uHTS hits, set 2, dose response (AID 488817).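 Further: potency of activators that raise enzyme activity.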 Type of test: functional.
For test [17], the target named is T5, Alkaline phosphatase, tissue-nonspecific isozyme (Homo sapiens, UniProt P05186).
T5 sequence (P05186 whole entry): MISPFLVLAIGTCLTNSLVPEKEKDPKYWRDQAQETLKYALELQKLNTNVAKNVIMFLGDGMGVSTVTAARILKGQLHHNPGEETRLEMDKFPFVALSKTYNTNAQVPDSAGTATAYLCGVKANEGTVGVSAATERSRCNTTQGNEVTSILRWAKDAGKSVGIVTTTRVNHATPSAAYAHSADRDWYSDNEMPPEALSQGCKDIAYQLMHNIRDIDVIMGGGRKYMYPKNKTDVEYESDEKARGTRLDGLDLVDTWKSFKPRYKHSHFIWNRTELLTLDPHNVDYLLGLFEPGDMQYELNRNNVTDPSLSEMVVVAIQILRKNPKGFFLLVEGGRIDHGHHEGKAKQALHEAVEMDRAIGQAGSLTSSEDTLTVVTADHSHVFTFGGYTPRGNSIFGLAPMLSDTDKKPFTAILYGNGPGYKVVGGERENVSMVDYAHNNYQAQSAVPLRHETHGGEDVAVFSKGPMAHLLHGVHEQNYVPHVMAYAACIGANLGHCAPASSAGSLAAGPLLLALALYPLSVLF
Description: activation of tissue-nonspecific alkaline phosphatase – biochemical, TNAP isozyme, human IAP uHTS hits, selectivity assay for human IAP activator project, dose response (AID 488886).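 Further: potency of compounds raising TNAP activity as a selectivity check on IAP activators.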 Format: functional.

A short description of test [18]: decrease of insulin promoter-GFP reporter – imaging, high-content screening, mouse beta cells (AID 1628). Format: functional. The note with it: MIN6.
A short description of test [19]: MIN6 cell viability loss – mouse insulinoma, cytotoxicity control, dose response (AID 2122).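 Further: confirmatory high-throughput counterscreen run to flag cytotoxic compounds.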 Type of test: functional.
A further test addresses Cytochrome P450 2D6 (Homo sapiens, UniProt P10635).
A further test deals with T6, Cytochrome P450 1A2 (Homo sapiens, UniProt P05177).
T6 sequence (P05177 whole entry): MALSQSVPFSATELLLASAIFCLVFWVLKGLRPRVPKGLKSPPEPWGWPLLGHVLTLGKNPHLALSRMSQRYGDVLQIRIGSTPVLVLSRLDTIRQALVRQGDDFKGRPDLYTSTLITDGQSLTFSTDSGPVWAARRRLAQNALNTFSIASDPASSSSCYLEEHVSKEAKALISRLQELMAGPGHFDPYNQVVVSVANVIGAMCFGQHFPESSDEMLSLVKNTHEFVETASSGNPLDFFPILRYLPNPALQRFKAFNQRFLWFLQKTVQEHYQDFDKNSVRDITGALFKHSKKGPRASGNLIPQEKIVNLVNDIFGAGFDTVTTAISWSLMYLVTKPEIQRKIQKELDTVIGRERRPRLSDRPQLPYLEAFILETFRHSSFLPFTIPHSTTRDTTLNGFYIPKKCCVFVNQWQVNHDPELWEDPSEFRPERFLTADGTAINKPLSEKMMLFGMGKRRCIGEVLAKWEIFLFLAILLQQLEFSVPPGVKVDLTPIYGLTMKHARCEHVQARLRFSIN

The structures appear in SMILES notation. Activity calls are given as the source filed them. Some results are limits rather than exact numbers.

Glycogen synthase kinase-3 beta, sequence (P49841 whole entry): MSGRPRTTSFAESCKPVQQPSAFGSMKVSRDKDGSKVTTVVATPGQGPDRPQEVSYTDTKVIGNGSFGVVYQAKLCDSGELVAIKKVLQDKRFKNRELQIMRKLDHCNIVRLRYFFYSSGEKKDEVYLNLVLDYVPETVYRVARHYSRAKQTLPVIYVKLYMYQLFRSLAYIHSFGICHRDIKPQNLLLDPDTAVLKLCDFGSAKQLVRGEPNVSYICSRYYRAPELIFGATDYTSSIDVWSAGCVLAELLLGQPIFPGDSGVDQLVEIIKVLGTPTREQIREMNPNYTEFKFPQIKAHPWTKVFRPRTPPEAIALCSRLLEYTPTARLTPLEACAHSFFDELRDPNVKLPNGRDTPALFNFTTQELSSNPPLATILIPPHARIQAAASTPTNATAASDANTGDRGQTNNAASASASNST
Intestinal-type alkaline phosphatase (Mus musculus, UniProt P24822), sequence (P24822 whole entry): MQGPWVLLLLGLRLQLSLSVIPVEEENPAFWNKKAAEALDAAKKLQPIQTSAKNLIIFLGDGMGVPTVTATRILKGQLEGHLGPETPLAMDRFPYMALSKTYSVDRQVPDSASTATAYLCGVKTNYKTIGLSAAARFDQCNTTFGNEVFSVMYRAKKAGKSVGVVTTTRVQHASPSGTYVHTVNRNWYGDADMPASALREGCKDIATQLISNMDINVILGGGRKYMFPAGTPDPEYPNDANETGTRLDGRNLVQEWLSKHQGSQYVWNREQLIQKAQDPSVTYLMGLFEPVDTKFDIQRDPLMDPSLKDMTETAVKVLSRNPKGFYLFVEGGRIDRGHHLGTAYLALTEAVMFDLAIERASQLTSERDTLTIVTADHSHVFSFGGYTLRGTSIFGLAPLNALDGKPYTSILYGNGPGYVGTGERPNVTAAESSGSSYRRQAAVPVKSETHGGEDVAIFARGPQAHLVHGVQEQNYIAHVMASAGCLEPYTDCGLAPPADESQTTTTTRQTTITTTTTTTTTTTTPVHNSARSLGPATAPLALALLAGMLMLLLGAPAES
Type-1 angiotensin II receptor, sequence (P30556 whole entry): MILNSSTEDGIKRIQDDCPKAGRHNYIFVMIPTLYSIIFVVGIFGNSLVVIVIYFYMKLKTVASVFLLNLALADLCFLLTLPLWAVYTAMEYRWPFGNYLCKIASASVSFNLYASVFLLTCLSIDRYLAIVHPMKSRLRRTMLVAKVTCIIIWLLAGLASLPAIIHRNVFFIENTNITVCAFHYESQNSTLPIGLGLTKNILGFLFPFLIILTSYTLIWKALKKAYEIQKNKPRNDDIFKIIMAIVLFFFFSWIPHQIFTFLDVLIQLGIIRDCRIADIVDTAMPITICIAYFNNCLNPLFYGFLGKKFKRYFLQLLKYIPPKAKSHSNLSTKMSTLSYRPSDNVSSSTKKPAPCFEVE
Glycogen synthase kinase-3 alpha, sequence (P49840 whole entry): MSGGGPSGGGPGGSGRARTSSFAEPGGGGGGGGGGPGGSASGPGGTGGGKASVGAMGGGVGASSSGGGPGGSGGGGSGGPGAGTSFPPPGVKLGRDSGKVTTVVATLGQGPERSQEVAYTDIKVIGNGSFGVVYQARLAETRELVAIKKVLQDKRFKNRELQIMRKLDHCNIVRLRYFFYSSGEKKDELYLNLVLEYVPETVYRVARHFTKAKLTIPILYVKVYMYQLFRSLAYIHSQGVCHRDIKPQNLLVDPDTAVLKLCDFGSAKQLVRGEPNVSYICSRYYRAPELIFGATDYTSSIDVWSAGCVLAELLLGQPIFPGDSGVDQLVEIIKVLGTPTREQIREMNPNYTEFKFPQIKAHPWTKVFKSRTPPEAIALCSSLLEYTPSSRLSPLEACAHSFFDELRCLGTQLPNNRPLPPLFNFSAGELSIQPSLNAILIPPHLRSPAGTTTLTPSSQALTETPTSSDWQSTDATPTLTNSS
Cytochrome P450 2D6, sequence (P10635 whole entry): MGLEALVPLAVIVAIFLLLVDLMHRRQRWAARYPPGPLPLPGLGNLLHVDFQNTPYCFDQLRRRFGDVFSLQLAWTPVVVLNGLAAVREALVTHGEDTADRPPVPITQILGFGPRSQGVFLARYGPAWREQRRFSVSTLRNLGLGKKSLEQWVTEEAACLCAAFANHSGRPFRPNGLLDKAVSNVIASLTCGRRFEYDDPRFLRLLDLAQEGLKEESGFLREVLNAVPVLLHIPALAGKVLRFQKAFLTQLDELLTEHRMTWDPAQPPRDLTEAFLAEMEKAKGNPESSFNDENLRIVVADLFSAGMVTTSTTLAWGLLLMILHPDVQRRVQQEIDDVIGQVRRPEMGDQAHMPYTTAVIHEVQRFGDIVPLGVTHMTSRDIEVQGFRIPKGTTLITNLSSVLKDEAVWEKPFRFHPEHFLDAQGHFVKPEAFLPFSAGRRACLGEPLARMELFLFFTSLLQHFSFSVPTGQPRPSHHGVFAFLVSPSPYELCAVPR

With `OC[C@H]1O[C@@H](n2cnc3cc(Cl)c(Cl)cc32)[C@H](O)[C@@H]1O` [DICHLORORIBOBENZIMIDAZOLE], in test [1], the AC50 was 3.76 µM (active).

As to `NC1(C(=O)O)CSSC1`, in [2], the concentration at half-maximal activity (AC50) is 14.5 µM (active). Further, the EC50 in the test with HEK293 [3] and in the test with HEK293 [4] was > 59.8 µM (inactive) in each case.

Turning to `N#CC(C(=O)NC1CCCCC1)=C1CCCCC1`, the IC50 in test [5], in [6] and in test [7] was > 79.4 µM (inactive) in each case.

For `C=CCNc1nc(N)c([N+](=O)[O-])c(Nc2ccccc2OC)n1`, the concentration for a half-maximal effect (EC50) in test [8] is 11.4 µM (active); in [9] it was 11.7 µM (active); in test [10], 14.2 µM (active). Besides, the AC50 is 0.388 µM (active) in test [11] and 0.0544 µM (active) in test [12].

Take `CC12CCC(=O)N1c1ccccc1C(=O)N2c1ccccc1` (stereo not given): the IC50 in test [5], in test [6] and in [7] was > 79.4 µM (inactive) each time.

In the case of `O=c1c2cc(Br)ccc2[nH]c(=S)n1Cc1ccccn1`, the EC50 on Beta-galactosidase is > 40 µM (inactive). The IC50 in test [13] is listed as 29.7 µM (not active).

On to `CN(CC(=O)Nc1ccccc1F)CC(=O)Nc1ccc(F)c(F)c1F`, for which the EC50 in [14] was > 100 µM (inactive); in test [15], 15.8 µM (active); in test [16] it was 23.6 µM (active); in [17] it was 23.3 µM (active).

For the compound `Cc1nc(Nc2nc3c(c(=O)[nH]2)CCC3)nc2ccccc12`, the EC50 was > 100 µM (inactive) in test [14], 13.1 µM (active) in [15], 17.6 µM (active) in test [16] and 26.1 µM (active) in test [17].

In the case of `COc1ccc(NCc2nc3ccccc3n2CCOc2ccc(C)cc2)cc1`, the IC50 in [18] was 2 µM (active); in [19], 4.54 µM (active).

Regarding `c1ccc2c(CSc3nnc(-c4ccncc4)o3)cccc2c1`, the AC50 in test [11] is 2.93 µM (active); in test [12], 0.143 µM (active); at Cytochrome P450 2D6, 0.501 µM (inconclusive); at Cytochrome P450 1A2, 3.16 µM (inconclusive).

As for `Cc1[nH]n(C(N)=S)c(=O)c1/N=N/c1ccc([N+](=O)[O-])cc1Cl`, the EC50 on Beta-galactosidase was > 40 µM (inactive). Further, the IC50 in test [13] is given as > 40 µM (not active).

Turning to `COc1ccc(N2C(=O)CC(N(CCc3ccc(OC)c(OC)c3)C(S)=Nc3ccccc3)C2=O)cc1` (stereo not given), the EC50 in the test on HEK293 [3] and in the test on HEK293 [4] was > 59.6 µM (inactive) each time.
